Measured values reported in patent US10537097B2, “Methods for treating red blood cells” (VIACELL, LLC., priority 2010, dated 2020).

How the values were obtained:
stored RBCs = assay: 2,3-DPG level of stored RBCs after incubation with storage and/or rejuvenating composition (Roche 2,3-DPG kit); type: cell-based; conditions: 60 minutes at 37° C.
Method: A storage and/or rejuvenating composition that includes D-ribose, inosine, sodium pyruvate, and inorganic phosphate, all at a 300 mM concentration as a slurry was prepared. When used to store and/or rejuvenate RBCs, the slurry is diluted 30-fold to a final concentration of 10 mM to form a solution. […] In a study, RBCs were collected and stored for an average of 21 days at 4° C. according to standard blood banking practice. Various RBC storage and/or rejuvenating compositions were added to the 21-day old stored RBCs and held at 37° C. for one to four hours before being tested for 2,3-DPG concentrations. […] A normal 2,3-DPG concentration of RBC immediately upon harvest is 4.0 μmol/ml. […] An increase to 1.0 μmol/ml is considered a significant improvement.

[1] = Solubility of nucleoside / concentrated composition; type: physicochemical; conditions: with L-arginine in an equimolecular solution; room temperature

## O=C[C@H](O)[C@H](O)[C@H](O)COP(=O)(O)O [ribose-5-phosphate]
Stored RBCs; varying concentrations replacing inosine, with 10 mM each D-ribose, sodium pyruvate, inorganic phosphate
  Rejuvenation: Rejuvenation was not observed

## Nc1nc2c(ncn2[C@@H]2O[C@H](CO)[C@@H](O)[C@H]2O)c(=O)[nH]1 [Guanosine]
Stored RBCs; 1 mM guanosine with 10 mM each inorganic phosphate and D-ribose, no sodium pyruvate
  2,3-DPG: 0.47 µmol/mL
Stored RBCs; 5 mM guanosine with 10 mM each inorganic phosphate and D-ribose, no sodium pyruvate
  2,3-DPG: 1.30 µmol/mL
Stored RBCs; 10 mM guanosine with 10 mM each inorganic phosphate and D-ribose, no sodium pyruvate
  2,3-DPG: 1.10 µmol/mL
Stored RBCs; guanosine at indicated concentration with 10 mM each inorganic phosphate and D-ribose, no sodium pyruvate
  Rejuvenation: Rejuvenation was observed

## OC[C@H]1O[C@@H](n2cnc3c(O)ncnc32)[C@H](O)[C@@H]1O [inosine]
[1]
  Concentration at which inosine remained in solution: above 50 mM
